Structures can show the parent of a compound that is named as a salt.
Legend:
NDM-1 = NDM-1 (Klebsiella pneumoniae, UniProt C7C422); assay: metallo-β-lactamase inhibition assay (nitrocefin); type: biochemical; details: 1.5 nM NDM-1, 100 μM nitrocefin, 37° C., pH 7.5
Description: Compounds of the invention were tested in a metallo-β-lactamase inhibition assay to investigate mechanism of action of the compounds. Results are reported as the concentration of test article required to inhibit enzyme activity by 50% (IC50).
Inhibition of metallo-β-lactamase enzyme function was performed at 37° C. in buffer at pH 7.5 (50 mM HEPES, 150 mM NaCl, 0.1 mM ZnSO4, 20 μg/mL PEG4000), containing 1.5 nM NDM-1, 100 μM nitrocefin, and a range of concentrations of compound. Absorbance at 490 nm was measured using a BMG LABTECH FLUOstar Omega microplate reader every minute for 30 minutes. IC50s were determined from the average increase in OD per minute versus the Log 10 concentration of compound using GraphPad Prism.

[1] = Cytotoxicity Assay (CellTiter-Glo); type: cell-based; details: human, Hep G2 cells (ATCC HB-8065); 24 h exposure; read-out: HepG2 CC50
Description: Cytotoxicity was evaluated in human Hep G2 cells (ATCC HB-8065) seeded at a density of 2×10^5 cells per well and incubated for 24 h at 37° C., 5% CO2. Cells were exposed to a doubling dilution series of test article. After 24 h exposure, the viability of the cells was determined using CellTiter-Glo® (Promega, WI, USA) according to the manufacturer's instructions. Results are reported as the concentration of test article required to reduce cell viability by 50% (CC50).

[2] = solubility study in saline, identified visually; type: physicochemical; details: 2 mg in 40 μL saline (50 mg/mL), visual; free base unless indicated
Description: Compounds were also tested in a solubility study. Each sample (2 mg) was weighed into a clear 1.75 mL vial followed by the addition of saline (40 μL, to make up to 50 mg/mL). Unless indicated otherwise, the compounds were tested as the free base. Each resulting mixture was vortexed (if required) and the solubility of each was identified visually.

[3] = test system: Cerep SafetyScreen44 Panel (44 targets); assay: off-target inhibition, Cerep SafetyScreen44 Panel
Description: Compounds were also tested for off-target inhibition in a Cerep SafetyScreen44 Panel.

A. baumannii SG698 NDM-1 = assay: Meropenem combination MIC; type: cell-based; details: meropenem only (baseline)
Description: (§1) MICs were determined by exposing bacteria to serial dilutions of antibacterial agents in MHB-II (cation-adjusted Mueller-Hinton Broth pH 7.4) according to Clinical and Laboratory Standards Institute (CLSI) broth microdilution guidelines (Cockerill et al., 2012).
(§2) Combination MIC were performed as described for MIC determinations with the addition of 4 mg/L test article to MHB-II.
(§3) The compounds of the invention were tested against a primary panel of bacterial strains, columns I-V of Table 2. As appropriate, compounds considered suitable for further investigation were tested against a secondary panel of bacterial strains, columns VI and VII of Table 2.

[4] = test system: E. coli ATCCBAA-2452 NDM-1; assay: Meropenem combination MIC; type: cell-based; details: meropenem only (baseline)
Description: as §1, §2, §3

E. coli NCTC13476 IMP = assay: Meropenem combination MIC; type: cell-based; details: meropenem only (baseline)
Description: as §1, §2, §3

[5] = test system: K. pneumoniae ATCC BAA2146 NDM-1; assay: Meropenem combination MIC; type: cell-based; details: meropenem only (baseline)
Description: as §1, §2, §3

[6] = test system: K. pneumoniae NCTC13439 VIM-1; assay: Meropenem combination MIC; type: cell-based; details: meropenem only (baseline)
Description: as §1, §2, §3

[7] = test system: K. pneumoniae NCTC13440 VIM-1; assay: Meropenem combination MIC; type: cell-based; details: meropenem only (baseline)
Description: as §1, §2, §3

Chain of NDM-1 (C7C422 whole entry, looked up, species assumed): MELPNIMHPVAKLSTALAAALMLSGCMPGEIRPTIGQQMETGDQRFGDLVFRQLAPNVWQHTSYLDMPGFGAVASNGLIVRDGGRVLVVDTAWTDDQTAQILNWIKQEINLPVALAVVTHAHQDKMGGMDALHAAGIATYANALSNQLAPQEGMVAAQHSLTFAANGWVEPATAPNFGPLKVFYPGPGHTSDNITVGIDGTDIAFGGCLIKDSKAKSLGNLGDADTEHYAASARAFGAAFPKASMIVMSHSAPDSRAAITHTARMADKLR

SMILES | IC50 (NDM-1) [nM] | CC50 at 24 h [1] [µg/mL] | also measured
NCC(=O)Nc1ccc(-c2ccn(S(N)(=O)=O)c2C(=O)O)cn1 [Example 93, 3-[6-[(2-Aminoacetyl)amino]-3-pyridyl]-1-sulfamoyl-pyrrole-2-carboxylic acid, sodium salt] | 162 | > 256 | –
NCCC(=O)Nc1ccc(-c2ccn(S(N)(=O)=O)c2C(=O)O)cn1 [Example 94, 3-[6-(3-Aminopropanoylamino)-3-pyridyl]-1-sulfamoyl-pyrrole-2-carboxylic acid, sodium salt] | 2490 | > 256 | –
NCCNc1ccc(-c2ccn(S(N)(=O)=O)c2C(=O)O)cn1 [Example 95, 3-[6-(2-Aminoethylamino)-3-pyridyl]-1-sulfamoyl-pyrrole-2-carboxylic acid hydrochloride] | 377 | > 256 | –
C[C@@H](O)[C@H]1C(=O)N2C(C(=O)O)=C(S[C@@H]3CN[C@H](C(=O)N(C)C)C3)[C@H](C)[C@H]12 [Meropenem, meropenem] | – | – | Meropenem MIC (μg/mL) IV A. baumannii SG698 NDM-1 (A. baumannii SG698 NDM-1): 8 µg/mL; Meropenem MIC (μg/mL) I E. coli ATCCBAA-2452 NDM-1 [4]: 1 µg/mL; Meropenem MIC (μg/mL) II E. coli NCTC13476 IMP (E. coli NCTC13476 IMP): 4 µg/mL; Meropenem MIC (μg/mL) III K. pneumoniae ATCC BAA2146 NDM-1 [5]: 16 µg/mL; Meropenem MIC (μg/mL) VII K. pneumoniae NCTC13439 VIM-1 [6]: 0.5 µg/mL; Meropenem MIC (μg/mL) V K. pneumoniae NCTC13440 VIM-1 [7]: 1 µg/mL

Further lines, with some results ahead:

IC50 (NDM-1) [nM] | SMILES | CC50 at 24 h [1] [µg/mL] | also measured
319 | CNCCN(C)C(=O)c1ccc(-c2ccn(S(N)(=O)=O)c2C(=O)O)cc1 [Example 25, 3-[4-[Methyl-[2-(methylamino)ethyl]carbamoyl]phenyl]-1-sulfamoyl-pyrrole-2-carboxylic acid] | > 256 | Solubility [2]: Soluble; Number of targets ≥50% inhibition at 100 μM [3]: 0
1480 | C[C@H](N)C(=O)N1CCC(c2ccn(S(N)(=O)=O)c2C(=O)O)CC1 [Example 69, 3-[1-[(2S)-2-Aminopropanoyl]-4-piperidyl]-1-sulfamoyl-pyrrole-2-carboxylic acid] | > 256 | Solubility [2]: Soluble; Number of targets ≥50% inhibition at 100 μM [3]: 0
399 | NCCN1CCC(c2ccn(S(N)(=O)=O)c2C(=O)O)CC1 [Example 85, 3-[1-(2-Aminoethyl)-4-piperidyl]-1-sulfamoyl-pyrrole-2-carboxylic acid] | > 128 | –
248 | CNCCN(C)C(=O)C1CCC(c2ccn(S(N)(=O)=O)c2C(=O)O)CC1 (stereo not drawn) [Example 87, 3-[4-[Methyl-[2-(methylamino)ethyl]carbamoyl]cyclohexyl]-1-sulfamoyl-pyrrole-2-carboxylic acid] | > 256 | –

Source: patent US12544359B2, “1-aminosulfonyl-2-carboxypyrrole derivatives as metallo-beta-lactamase inhibitors” (INFEX Therapeutics Limited, priority 2019, dated 2026)
